Experimental data from patent publication US20210214358A1, “CDK4/6 INHIBITOR AND PHARMACEUTICALLY ACCEPTABLE SALT AND POLYMORPH THEREOF AND USE THEREOF” (SHANGHAI HAIYAN PHARMACEUTICAL TECHNOLOGY CO., LTD., priority 2018, published 2021).

How the values were obtained:
CDK6 = target: T1, CDK6 (Homo sapiens, UniProt Q00534); test: Kinase test in vitro (LANCE Ultra, Ulight-4EBP1); format: biochemical
T1 construct: purchased Invitrogen or Carna
Description: (§1) Recombinant CDK1, CCNB1 and CDK9, and CCNT were purchased from BPS; CDK2, CCNA1, CDK4, CCND1 and CDK6, and CCND1 were purchased from Invitrogen; CDK4, CycD3 and CDK6, and CycD3 were purchased from Carna. Adenosine triphosphate (ATP) was purchased from Life tech. Substrate Ulight-4EBP1 and the corresponding detection antibody were purchased from Perkinelmer. LANCE Ultra system from Perkinelmer is used as the detection system.
(§2) In the kinase test, a compound to be tested was 1:3 diluted for 8 gradient points and added into a reaction plate, and then an appropriate amount of recombinase was added. A buffer [50 mM HEPES pH7.5, 10 mM MgCl2, 3 mM MnCl2, 1 mM EGTA, 0.01% Tween-20, 1 mM TCEP] containing ATP, Ulight-4EBP1 premix at a predetermined concentration was subsequently added, and the kinase reaction began at room temperature. A test solution pre-mixed with 10 mM EDTA and detection antibody was added after a suitable reaction time, and then the fluorescence value was read on Tecan infinite pro after reacting for 1 hour at room temperature. The IC50 was calculated using a four-factor model fitting in a XLfit software.

CDK4 = target: T2, CDK4 (Homo sapiens, UniProt P11802); test: Kinase test in vitro (LANCE Ultra, Ulight-4EBP1); format: biochemical
T2 construct: purchased Invitrogen or Carna
T2 sequence (P11802 whole entry): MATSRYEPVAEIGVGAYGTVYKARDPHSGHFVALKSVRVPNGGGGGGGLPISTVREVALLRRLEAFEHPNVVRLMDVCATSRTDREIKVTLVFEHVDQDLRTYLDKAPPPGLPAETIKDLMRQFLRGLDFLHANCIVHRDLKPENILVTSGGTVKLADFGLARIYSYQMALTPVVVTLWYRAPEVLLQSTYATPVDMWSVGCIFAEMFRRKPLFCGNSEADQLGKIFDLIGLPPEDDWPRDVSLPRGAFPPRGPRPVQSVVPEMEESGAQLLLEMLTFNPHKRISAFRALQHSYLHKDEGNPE
T2 sequence (P24385 whole entry partner): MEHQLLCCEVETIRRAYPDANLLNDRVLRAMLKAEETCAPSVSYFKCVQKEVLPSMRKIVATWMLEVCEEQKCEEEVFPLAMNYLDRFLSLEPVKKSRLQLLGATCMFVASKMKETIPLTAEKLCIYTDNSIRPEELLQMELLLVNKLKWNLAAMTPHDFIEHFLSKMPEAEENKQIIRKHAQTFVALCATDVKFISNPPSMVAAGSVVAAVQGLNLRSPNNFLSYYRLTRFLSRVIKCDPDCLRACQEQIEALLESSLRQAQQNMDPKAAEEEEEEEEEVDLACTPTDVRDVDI
Description: as §1, §2

CDK2 = target: T3, CDK2 (Homo sapiens, UniProt P24941); test: Kinase test in vitro (LANCE Ultra, Ulight-4EBP1); format: biochemical
T3 construct: purchased Invitrogen
Description: as §1, §2

CDK1 = target: T4, CDK1 (Homo sapiens, UniProt P06493); test: Kinase test in vitro (LANCE Ultra, Ulight-4EBP1); format: biochemical
T4 construct: purchased BPS
T4 sequence (P06493 whole entry): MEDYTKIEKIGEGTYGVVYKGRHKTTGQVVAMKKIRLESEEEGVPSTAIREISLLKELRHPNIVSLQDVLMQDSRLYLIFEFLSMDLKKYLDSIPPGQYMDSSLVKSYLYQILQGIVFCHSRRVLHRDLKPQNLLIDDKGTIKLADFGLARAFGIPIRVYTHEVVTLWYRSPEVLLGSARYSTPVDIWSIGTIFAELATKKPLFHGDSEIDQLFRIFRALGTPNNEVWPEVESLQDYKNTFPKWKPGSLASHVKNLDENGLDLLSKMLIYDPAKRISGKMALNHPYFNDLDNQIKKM
T4 sequence (P14635 whole entry partner): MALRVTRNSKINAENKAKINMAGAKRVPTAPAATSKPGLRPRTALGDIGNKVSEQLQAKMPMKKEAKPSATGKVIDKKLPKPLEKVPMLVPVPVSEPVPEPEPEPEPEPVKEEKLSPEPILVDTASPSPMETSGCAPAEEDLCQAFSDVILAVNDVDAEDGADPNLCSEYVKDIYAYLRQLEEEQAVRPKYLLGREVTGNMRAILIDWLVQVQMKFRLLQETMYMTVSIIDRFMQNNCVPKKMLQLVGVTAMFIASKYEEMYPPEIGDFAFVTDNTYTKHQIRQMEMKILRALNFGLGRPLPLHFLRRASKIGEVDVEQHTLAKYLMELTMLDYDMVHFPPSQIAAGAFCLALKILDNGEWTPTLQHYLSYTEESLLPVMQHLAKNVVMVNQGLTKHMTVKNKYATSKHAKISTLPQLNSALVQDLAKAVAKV
Description: as §1, §2

[1] = Pharmacokinetics and brain distribution test; format: in vivo, SD rats; conditions: rats, oral 10 mg/kg
Description: Test Animals: healthy adult male SD rats (weight 210-230 g per rat, 12 rats, fasted overnight, fed 4 hours after dosing), provided by SLAC company; preparation of oral solution: 40.14 mg of compound P-53 was weighed and added into a clean tube, and 36.479 mL of 0.5% HPC-H (TCI, E6ZQA) in acetate buffer (PH4.5) was added into the tube. The mixture was then vortexed for 1-2 min. Then the solution was sonicated for 20-25 min and stirred for 20-25 min.
SD rats were administered via intragastric administration (10 mg/kg (10 mL/kg)); samples were collected at 0.5, 1, 2 and 4 hr after dosing (total 4 timepoints), wherein only plasma samples were collected continuously, and brain tissue and cerebrospinal fluid were collected at each time point.
Blood collection: The animal was restrained manually and at each time point collected approximately 150 μL blood via tail vein into a K2EDTA-containing tube. Within 15 minutes, the blood sample was put on wet ice and centrifuged to obtain plasma sample (2000 g, 5 min under 4° C.). […]
Analytical method: the plasma and brain of SD rats were used as matrix, and Glipizide was used as an internal standard. […] The drug concentration was determined by LC-MS/MS method, the pharmacokinetic parameters in the plasma, brain tissue, and cerebrospinal fluid of rats are shown in Table 8: […]

T1 sequence (Q00534 whole entry): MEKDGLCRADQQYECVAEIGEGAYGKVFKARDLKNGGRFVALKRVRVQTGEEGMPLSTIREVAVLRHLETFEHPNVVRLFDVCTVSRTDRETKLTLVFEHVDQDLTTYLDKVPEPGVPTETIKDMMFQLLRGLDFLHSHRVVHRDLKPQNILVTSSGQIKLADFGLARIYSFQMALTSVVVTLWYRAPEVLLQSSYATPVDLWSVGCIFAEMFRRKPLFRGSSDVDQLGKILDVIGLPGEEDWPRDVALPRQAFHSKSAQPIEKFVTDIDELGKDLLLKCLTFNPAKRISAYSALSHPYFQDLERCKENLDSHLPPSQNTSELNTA
T1 sequence (P24385 whole entry partner): as the sequence (P24385 whole entry partner) above

SMILES: CCN1CCN(Cc2ccc(Nc3ncc4c(n3)-c3c(nc(C5CC5)n3C(C)C)C4)nc2)CC1 [Free base of compound of formula X, 2-cyclopropyl-N-(5-((4-ethylpiperazin-1-yl)methyl)pyridin-2-yl)-3-isopropyl-3,8-dihydroimidazo[4′,5′,4,5]cyclopenta[1,2-d]pyrimidin-5-amine]
- IC50 (CDK6): 57 nM
- inhibitory activity against CDK6 (in words) (CDK6): strong inhibitory activity
- IC50 (CDK4): 10 nM
- inhibitory activity against CDK4 (in words) (CDK4): strong inhibitory activity
- IC50 (CDK2): 8.75 µM
- inhibitory activity against CDK2 (in words) (CDK2): weak inhibitory activity
- IC50 (CDK1): 6.09 µM
- inhibitory activity against CDK1 (in words) (CDK1): weak inhibitory activity
- brain permeability (in words) [1]: can cross the blood-brain barrier
